PubChem BioAssay AID248 (DTP/NCI, 2004)
Where “and” joins values, the source holds several entries; their conditions need not be identical. Equal values may be shown once. Toxic doses and inconclusive results are not listed.

Tested on: L1210 leukemia ip in BDF1 mice, survival T/C
Test: NCI In Vivo Anticancer Drug Screen. Data for tumor model L1210 Leukemia (intraperitoneal) in B6D2F1 (BDF1) mice
Settings: endpoint: mean survival time, higher = longer survival
Summary of the method: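 Tumor cells were implanted, animals were treated, and survival was followed. The result divides the treated measurement by the vehicle-control measurement.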

[1] = dose: 100.0 mg/kg/injection, schedule: Q01DX001 (ip), vehicle: saline
[2] = dose: 200.0 mg/kg/injection, schedule: Q01DX001 (ip), vehicle: saline
[3] = dose: 400.0 mg/kg/injection, schedule: Q01DX001 (ip), vehicle: saline
[4] = dose: 12.5 mg/kg/injection, schedule: Q01DX009 (ip), vehicle: Klucel (hydroxypropylcellulose) (HPC)
[5] = dose: 25.0 mg/kg/injection, schedule: Q01DX009 (ip), vehicle: Klucel (hydroxypropylcellulose) (HPC)
[6] = dose: 50.0 mg/kg/injection, schedule: Q01DX009 (ip), vehicle: Klucel (hydroxypropylcellulose) (HPC)
[7] = dose: 100.0 mg/kg/injection, schedule: Q01DX009 (ip), vehicle: Klucel (hydroxypropylcellulose) (HPC)
[8] = dose: 200.0 mg/kg/injection, schedule: Q01DX009 (ip), vehicle: Klucel (hydroxypropylcellulose) (HPC)
[9] = dose: 100.0 mg/kg/injection, schedule: Q01DX001 (ip), vehicle: carboxymethylcellulose (CMC)
[10] = dose: 100.0 mg/kg/injection, schedule: Q04DX003 (ip), vehicle: saline with Tween-80
[11] = dose: 200.0 mg/kg/injection, schedule: Q01DX001 (ip), vehicle: carboxymethylcellulose (CMC)
[12] = dose: 200.0 mg/kg/injection, schedule: Q04DX003 (ip), vehicle: saline with Tween-80
[13] = dose: 400.0 mg/kg/injection, schedule: Q01DX001 (ip), vehicle: carboxymethylcellulose (CMC)
[14] = dose: 400.0 mg/kg/injection, schedule: Q04DX003 (ip), vehicle: saline with Tween-80
[15] = dose: 50.0 mg/kg/injection, schedule: Q01DX009 (ip), vehicle: saline
[16] = dose: 100.0 mg/kg/injection, schedule: Q04DX003 (ip), vehicle: Klucel (hydroxypropylcellulose) (HPC)
[17] = dose: 200.0 mg/kg/injection, schedule: Q04DX003 (ip), vehicle: Klucel (hydroxypropylcellulose) (HPC)
[18] = dose: 400.0 mg/kg/injection, schedule: Q04DX003 (ip), vehicle: Klucel (hydroxypropylcellulose) (HPC)
[19] = dose: 400.0 mg/kg/injection, schedule: Q01DX009 (ip), vehicle: Klucel (hydroxypropylcellulose) (HPC)
[20] = dose: 100.0 mg/kg/injection, schedule: Q01DX009 (ip), vehicle: saline with Tween-80
[21] = dose: 200.0 mg/kg/injection, schedule: Q01DX009 (ip), vehicle: saline with Tween-80

With `Cc1nc(N)c2nc(-c3ccc(N(CCO)CCO)cc3)c(N)nc2n1` the T/C [1] was 98 % of control, the T/C [2] was 95 % of control and the T/C [3] was 89 % of control.
With `CC1=C(C)CC(c2ccccc2)C(C(=O)O)C1` (centres undefined) the T/C (dose: 176.0 mg/kg/injection, schedule: Q01DX001 (ip), vehicle: other) was 100 % of control, the T/C (dose: 266.0 mg/kg/injection, schedule: Q01DX001 (ip), vehicle: other) was 100 % of control and the T/C (dose: 400.0 mg/kg/injection, schedule: Q01DX001 (ip), vehicle: other) was 101 % of control.
`C[C@H]1C[C@@H]2[C@H]([C@@H](O)C[C@@]3(C)[C@H]2CC[C@]3(O)C(=O)CO)[C@@]2(C)C=CC(=O)C=C12` was tested, and the T/C (dose: 6.25 mg/kg/injection, schedule: Q01DX009 (ip), vehicle: Klucel (hydroxypropylcellulose) (HPC)) was 104 % of control, the T/C [4] was 104 % of control and the T/C (dose: 12.5 mg/kg/injection, schedule: Q01DX Z (sc), vehicle: water) was 107 % of control. For the same compound, the T/C [5] was 102 % of control, the T/C (dose: 25.0 mg/kg/injection, schedule: Q01DX Z (sc), vehicle: water) was 108 % of control and the T/C [6] was 98 % of control. For the same compound, the T/C (dose: 50.0 mg/kg/injection, schedule: Q01DX Z (sc), vehicle: water) was 107 % of control, the T/C [7] was 107 % of control and the T/C (dose: 100.0 mg/kg/injection, schedule: Q01DX Z (sc), vehicle: water) was 110 % of control. For the same compound, the T/C [8] was 104 % of control and the T/C (dose: 200.0 mg/kg/injection, schedule: Q01DX Z (sc), vehicle: water) was 115 % of control.
`CCN1c2ccccc2Sc2ccccc21` was tested, and the T/C (dose: 50.0 mg/kg/injection, schedule: Q01DX001 (ip), vehicle: carboxymethylcellulose (CMC)) was 98 % of control, the T/C [9] was 98 % of control and the T/C [10] was 92 % of control. For the same compound, the T/C [11] was 102 % of control, the T/C [12] was 97 % of control and the T/C [13] was 98 % of control. The T/C [14] was 100 % of control.
`Cc1ccc[nH]c1=O` was tested, and the T/C [15] was 95 % of control, the T/C (dose: 100.0 mg/kg/injection, schedule: Q01DX009 (ip), vehicle: saline) was 93 % of control and the T/C (dose: 100.0 mg/kg/injection, schedule: Q04DX003 (ip), vehicle: saline) was 107 % of control. The T/C (dose: 200.0 mg/kg/injection, schedule: Q01DX009 (ip), vehicle: saline) was 91 % of control and the T/C (dose: 200.0 mg/kg/injection, schedule: Q04DX003 (ip), vehicle: saline) was 109 % of control.
For `C=CCNC(=S)Nc1cccc(Cl)c1C`, the T/C [4] was 87 % of control, the T/C [5] was 101 % of control and the T/C [6] was 96 % of control. For the same compound, the T/C [16] was 90 % of control, the T/C [17] was 100 % of control and the T/C [18] was 94 % of control.
`Nc1ccn(C2OC(CO)C(O)C2O)c(=NCC(=O)O)n1` (centres undefined) was tested, and the T/C (dose: 100.0 mg/kg/injection, schedule: Q01DX005 (ip), vehicle: saline) was 120 % of control and the T/C (dose: 200.0 mg/kg/injection, schedule: Q01DX005 (ip), vehicle: saline) was 122 % of control.
For `CCCCCCP(C)(=O)CCCCCC`, the T/C (dose: 100.0 mg/kg/injection, schedule: Q01DX001 (ip), vehicle: saline with Tween-80) was 99 % of control.
With `CN(C(=O)/C=C/c1ccccc1)C1CCCCC1` the T/C [7] was 101 % of control, the T/C [8] was 110 % of control and the T/C [19] was 111 % of control.
For `Cc1nc(N)[nH]c(=O)c1Br`, the T/C [7] was 97 % of control, the T/C [16] was 93 % of control and the T/C [8] was 100 % of control. For the same compound, the T/C [17] was 98 % of control and the T/C [18] was 98 % of control.
With `CCCCCCCOc1ccc(C2=C(c3ccccc3)C(=O)C(c3ccccc3)=C2c2ccccc2)cc1` the T/C [9] was 100 % of control, the T/C [11] was 100 % of control and the T/C [13] was 94 % of control.
`CCOC(=O)CN1C(=O)Cc2ccccc21` was tested, and the T/C (dose: 75.0 mg/kg/injection, schedule: Q04DX002 (ip), vehicle: saline with Tween-80) was 101 % of control, the T/C (dose: 150.0 mg/kg/injection, schedule: Q04DX002 (ip), vehicle: saline with Tween-80) was 108 % of control and the T/C (dose: 300.0 mg/kg/injection, schedule: Q04DX002 (ip), vehicle: saline with Tween-80) was 104 % of control.
In the case of `O=C(N/N=C/c1ccccc1)c1ccc(Cl)cc1`, the T/C [16] is reported as 97 % of control, the T/C [17] is reported as 100 % of control and the T/C [18] is reported as 90 % of control.
With `CCCCSc1n[nH]c(=O)[nH]c1=S` the T/C [1] was 91 % of control and the T/C [2] was 96 % of control.
With `Cc1c(C(=O)c2ccc3c(c2)OCO3)ccc2c1OCO2` the T/C [9] was 100 % of control, the T/C [11] was 100 % of control and the T/C [13] was 96 % of control.
For `COc1ccc2cc(Br)ccc2c1`, the T/C [20] was 107 % of control, the T/C [21] was 102 % of control and the T/C (dose: 400.0 mg/kg/injection, schedule: Q01DX009 (ip), vehicle: saline with Tween-80) was 102 % of control.
`O=C(O)COc1cc(Cl)cc(Cl)c1` was tested, and the T/C (dose: 50.0 mg/kg/injection, schedule: Q04DX002 (ip), vehicle: other) was 91 % of control, the T/C (dose: 100.0 mg/kg/injection, schedule: Q04DX002 (ip), vehicle: other) was 94 % of control and the T/C (dose: 200.0 mg/kg/injection, schedule: Q04DX002 (ip), vehicle: other) was 108 % of control.
With `C/C=C1\CN2CCC34CC5C6CC7c8c(c9ccccc9n8C)CC(C6COC5(C)OC35C2CC1C(C(=O)OC)N5c1ccccc14)N7C` (centres undefined) the T/C [10] was 87 % of control.
In the case of `O=C(O)c1[nH]c(=O)[nH]c(=O)c1F.[Ga]`, the T/C (dose: 50.0 mg/kg/injection, schedule: Q01DX009 (ip), vehicle: saline with Tween-80) is reported as 109 % of control, the T/C [20] is reported as 91 % of control and the T/C [10] is reported as 101 % of control. For the same compound, the T/C (dose: 177.0 mg/kg/injection, schedule: Q01DX001 (ip), vehicle: saline with Tween-80) was 160 % of control, the T/C (dose: 200.0 mg/kg/injection, schedule: Q01DX001 (ip), vehicle: saline with Tween-80) was 174 % of control and the T/C [21] was 99 % of control. The T/C [12] was 102 % of control and the T/C (dose: 400.0 mg/kg/injection, schedule: Q01DX001 (ip), vehicle: saline with Tween-80) was 197 % of control.
In the case of `CCC(C)NC(=O)C1C2CC3OC(=O)C1C3C2` (centres undefined), the T/C [10] is reported as 106 % of control and 98 % of control, the T/C [12] is reported as 101 % of control and 98 % of control and the T/C [14] is reported as 95 % of control and 98 % of control.
With `O=C(Nc1ccccc1Cl)Oc1ccc(Cl)cc1Cc1ccccc1` the T/C [20] was 91 % of control, the T/C (dose: 100.0 mg/kg/injection, schedule: Q04DX002 (ip), vehicle: saline with Tween-80) was 100 % of control and the T/C [21] was 90 % of control. For the same compound, the T/C (dose: 200.0 mg/kg/injection, schedule: Q04DX002 (ip), vehicle: saline with Tween-80) was 91 % of control and the T/C (dose: 400.0 mg/kg/injection, schedule: Q04DX002 (ip), vehicle: saline with Tween-80) was 91 % of control.
`COc1ccc(OC)c(OC)c1CC(C)N` (centres undefined) was tested, and the T/C (dose: 25.0 mg/kg/injection, schedule: Q01DX009 (ip), vehicle: saline) was 108 % of control and the T/C [15] was 104 % of control.
`Cc1cc(C)c(C(=O)c2ccc([N+](=O)[O-])cc2)c(C)c1` was tested, and the T/C [7] was 98 % of control, the T/C [16] was 105 % of control and the T/C [8] was 86 % of control. The T/C [17] was 95 % of control, the T/C [19] was 86 % of control and the T/C [18] was 94 % of control.
`CC1CC(C)(C)NC(=S)O1` (centres undefined) was tested, and the T/C (dose: 15.0 mg/kg/injection, schedule: Q01DX001 (ip), vehicle: carboxymethylcellulose (CMC)) was 101 % of control and the T/C (dose: 30.0 mg/kg/injection, schedule: Q01DX001 (ip), vehicle: carboxymethylcellulose (CMC)) was 102 % of control.
`Nc1cnccc1NCC(O)c1ccccc1` (centres undefined) was tested, and the T/C [1] was 95 % of control, the T/C [2] was 101 % of control and the T/C [3] was 86 % of control.
For `Cc1ccc(S(=O)(=O)OCC2CO2)cc1` (centres undefined), the T/C (dose: 100.0 mg/kg/injection, schedule: Q01DX009 (ip), vehicle: acetone) was 92 % of control, the T/C (dose: 100.0 mg/kg/injection, schedule: Q04DX003 (ip), vehicle: acetone) was 92 % of control and the T/C (dose: 200.0 mg/kg/injection, schedule: Q04DX003 (ip), vehicle: acetone) was 95 % of control. For the same compound, the T/C (dose: 400.0 mg/kg/injection, schedule: Q01DX009 (ip), vehicle: acetone) was 87 % of control and the T/C (dose: 400.0 mg/kg/injection, schedule: Q04DX003 (ip), vehicle: acetone) was 92 % of control.
`CC(=O)Oc1ccc(N(CCCl)CCCl)cc1OC(C)=O` was tested, and the T/C (dose: 150.0 mg/kg/injection, schedule: Q01DX001 (ip), vehicle: other) was 98 % of control.
With `NC(=S)NN=C1CCN(Cc2ccccc2)CC1` the T/C (dose: 50.0 mg/kg/injection, schedule: Q01DX001 (ip), vehicle: saline) was 95 % of control and the T/C [1] was 101 % of control.
